According to PMC12903969, “Discovery of a Novel and Potent Kir4.1 Inhibitor as a Safe and Rapid‐Onset Antidepressant Agent in Mice” (Advanced Science, 2025):
Values joined by “and” are separate entries in the source; they are usually repeats but may differ in a detail not shown here. Equal entries are not always repeated.

How the values were obtained:
Kir4.1 cKO astrocytes = test: Patch clamp of Kir4.1 cKO primary astrocytes; assay type: cell-based, mouse; conditions: tamoxifen-treated Kir4.1 cKO astrocytes, 3 µM
Experimental: Astrocytes were isolated and cultured as previously described.^[ [16] ^] Briefly, the cortices from P1‐P4 mouse pups were dissected and incubated for 25 min in Hank's Balanced Salt Solution (22.5 ml) with 2.5% trypsin (2.5 ml) at 37 °C. Cells were dissociated in cultured medium (DMEM/F12 supplemented with 10% fetal bovine serum and 1% penicillin and streptomycin) and filtered with a 70‐µm cell strainer. Cell suspensions were cultured in PDL‐pretreated 75‐cm^2 flasks for the initial seven days, with half of the medium replaced every 2 days. Subsequently, the cultures were shaken at 220 rpm for 6 h at 37 °C to remove microglia and oligodendrocytes from the astrocyte layers. […]
Whole‐cell patch‐clamp recordings were obtained either in transiently transfected CHO‐K1 cells or in primary cultured astrocytes at room temperature using standard patch‐clamp techniques with an Axopatch‐700B amplifier (Axon Instruments). […] Macroscopic currents generated by expressed potassium channels were recorded under the voltage‐clamp conditions with an internal pipette solution composed of (in mM): 140 KCl, 5 NaCl, 1 CaCl2, 1 MgCl2, 10 HEPES, and 10 EGTA, pH 7.2 adjusted with KOH. […] Astrocytic resting membrane potentials were recorded under current‐clamp conditions (I = 0 pA) using standard internal and external solutions, determined immediately after achieving whole‐cell mode.

KCNQ2 = KCNQ2 (Homo sapiens, UniProt O43526); test: KCNQ2 channel inhibition; assay type: cell-based; design: KCNQ2 inhibition, single recordings: unit not given here
Text: Whole‐cell patch‐clamp recordings were obtained either in transiently transfected CHO‐K1 cells or in primary cultured astrocytes at room temperature using standard patch‐clamp techniques with an Axopatch‐700B amplifier (Axon Instruments). The signals were filtered at 2 kHz and sampled at 20 kHz using the Digidata 1440A interface (Axon Instruments). The resistance of borosilicate glass pipettes was typically 2–4 MΩ when filled with the internal solution. Drug application was facilitated using a BPS perfusion system (ALA Scientific Instruments). Macroscopic currents generated by expressed potassium channels were recorded under the voltage‐clamp conditions with an internal pipette solution composed of (in mM): 140 KCl, 5 NaCl, 1 CaCl2, 1 MgCl2, 10 HEPES, and 10 EGTA, pH 7.2 adjusted with KOH. The external solution contained (in mM): 140 NaCl, 5 KCl, 2 CaCl2, 1 MgCl2, 10 glucose, and 10 HEPES, pH 7.4 adjusted with NaOH. Currents were elicited with a hyperpolarized voltage at −120 mV from the holding potential of −80 mV, followed by a ramp voltage depolarizing to +50 mV. Astrocytic resting membrane potentials were recorded under current‐clamp conditions (I = 0 pA) using standard internal and external solutions, determined immediately after achieving whole‐cell mode.

mice [1] = test: Repeat-dose (14-day subacute) toxicity study
Experimental: The mice received daily treatments for 14 consecutive days and were monitored once daily for signs of toxicity. Individual body weights were measured daily throughout the observation period. At the end of this period, all mice were sacrificed and dissected. Macroscopic evaluation was performed, and the heart, liver, spleen, lungs, kidneys, and brain were excised for relative weight calculations. Representative organ fragments were embedded in formalin and paraffin, then fixed for subsequent histopathological analysis. Serum biochemical analyses included determination of creatinine, urea, alanine aminotransferase, and aspartate aminotransferase.

mice [2] = test: Hippocampal inflammatory cytokines (IL-6, TNF-α) after 14-day administration; assay type: in vivo; design: IL-6 / TNF-α: unit not given here; conditions: for IL-6 / TNF-α: hippocampus, 14-day administration, individual animals
mice [3] = test: Rotarod test (RT); assay type: in vivo; conditions: chronic 10 mg kg−1 per day
Experimental: The rotarod test was designed to evaluate the coordination and motor performance of rodents. The speed and time were set for the rod rotators. All experimental mice were allowed to adapt to a lower speed (5 rpm). For the formal test, the mice were placed on a rod spinning at 20 rpm, and the duration that the mice were able to hold on the rod at this speed was recorded. The maximum test duration was 20 min.

mice [4] = test: 21-day chronic administration: body weight, organ weight, serum biochemistry
C57BL/6J mice after CSDS = test: CSDS model, social interaction test; assay type: in vivo
Experimental: The 10‐day CSDS paradigm was conducted as previously described.^[ [24] ^] CD‐1 aggressive mice were singly housed in defeat cages on one side of a perforated plexiglass partition 24 h before the defeat session. Experimental C57BL/6J mice were placed daily on the resident cage side of a novel CD‐1 aggressor that rapidly initiated a physical attack on the intruder. After 10‐min of social defeat, the intruder mice were housed on the opposite side of the partition within a shared home cage, experiencing further sensory contact for the subsequent 24 h. In contrast, control mice were maintained in their home cages and allowed to explore the empty defeat cages for 10 min each day.
C57BL/6J mice, comprising both control and experimental groups, were placed individually into the social open field with a plexiglass enclosure positioned along the side wall. Movement parameters, including the time spent in the interaction zone, corner zones, and locomotion, were monitored and analyzed over the two test sessions using the AnyMaze Tracking System. In the first session, the mice freely explored the arena for 2.5 min. Then, a new aggressive CD‐1 mouse was introduced into the plexiglass enclosure, and the experimental mice returned to the arena for the second 2.5‐min session. The social interaction ratio was determined as the ratio between the time the experimental mice spent in the interaction zone when the target CD‐1 was present and the time spent in the zone when it was absent.

[5] = 100 mg/kg, 14-day, individual animals
[6] = organ weight index, 100 mpk, 14-day, individual animals, 100 mg/kg
[7] = 10 mg/kg, 21-day chronic administration, individual animals
[8] = serum, 10 mg/kg, 21-day chronic administration, individual animals

c1ccc2c(c1)oc1ccc(Nc3ccnc(NCCCN4CCOCC4)n3)cc12 [JX3212, N^4-(dibenzo[b,d]furan-2-yl)-N^2-(3-morpholinopropyl)pyrimidine-2,4-diamine]
JX3212-induced effects in Kir4.1 cKO astrocytes (in words) (Kir4.1 cKO astrocytes): abolished | IC50 (KCNQ2): 5.99 µM | KCNQ2 inhibition, single recordings (KCNQ2; concentration 3): 22.0588 and 21.8921 and 13.4681 | KCNQ2 inhibition, single recordings (KCNQ2; concentration 10): 79.5346 and 67.5255 and 78.5615 | KCNQ2 inhibition, single recordings (KCNQ2; concentration 30 (unit not given)): 97.6879 and 84.1578 and 95.4545 | histomorphology of liver, spleen, kidneys, HE staining (in words) (mice [1]; 100 mg kg−1 i.p., 14 days): no pronounced pathological changes | serum creatine level (in words) (mice [1]; 100 mg kg−1 i.p., 14 days): slight decrease in creatine levels | mortality, body weight, organ-to-body weight ratio (in words) (mice [1]; 100 mg kg−1 i.p., 14 days, n = 6): No mortality or significant changes in body weight | ALT (mice [1]; [5]): 24 and 28 and 22 and 33 and 30 and 36 | AST (mice [1]; [5]): 77 and 98 and 90 and 81 | Cr (mice [1]; [5]): 23 and 24 and 31 and 22 | Body weight (mice [1]; 100 mpk, day 1, individual animals): 24.7 and 25 (2×) and 25.5 | Body weight (mice [1]; 100 mpk, day 2, individual animals): 24.3 and 25 and 24.7 and 23.4 (2×) and 24.2 | Body weight (mice [1]; 100 mpk, day 3, individual animals): 25 (2×) and 23.6 and 23.7 and 24.2 and 23.8 | Body weight (mice [1]; 100 mpk, day 4, individual animals): 23.4 and 25 and 24.7 and 25.4 and 24 (2×) | Body weight (mice [1]; 100 mpk, day 5, individual animals): 25 and 23.3 and 24.7 (2×) and 25.4 | Body weight (mice [1]; 100 mpk, day 6, individual animals, in g (unit assumed)): 24.7 and 23.4 and 25 and 25.8 and 24.4 | Body weight (mice [1]; 100 mpk, day 7, individual animals, in g (unit assumed)): 25.1 and 23.1 and 25.2 and 25.3 and 23.9 and 24.5 | Body weight (mice [1]; 100 mpk, day 8, individual animals): 24.6 (2×) and 23.2 and 24 and 24.9 and 22.8 | Body weight (mice [1]; 100 mpk, day 9, individual animals): 23.2 and 23 and 24.8 (2×) and 23.5 and 25 | Body weight (mice [1]; 100 mpk, day 10, individual animals, in g (unit assumed)): 23.6 and 22.9 and 24.4 and 24.1 | Body weight (mice [1]; 100 mpk, day 11, individual animals, in g (unit assumed)): 24.4 and 23.3 and 23.8 | Body weight (mice [1]; 100 mpk, day 12, individual animals, in g (unit assumed)): 24.4 and 23.7 and 24.2 and 23.3 | Body weight (mice [1]; 100 mpk, day 13, individual animals): 24.3 and 24.1 (2×) and 23.6 and 25.7 and 23.4 | Body weight (mice [1]; 100 mpk, day 14, individual animals, in g (unit assumed)): 24.1 and 23.8 and 26.2 and 24.4 and 22.9 and 24 | Brain (mice [1]; [6]): 1.903 and 1.921 and 1.682 and 2.001 and 1.79 and 1.878 | Heart (mice [1]; [6]): 0.4606 and 0.4848 and 0.4887 and 0.4129 and 0.4371 and 0.4527 | Kidney (mice [1]; [6]): 1.532 and 1.538 and 1.4509 and 1.426 and 1.403 and 1.554 | Liver (mice [1]; [6]): 6.39 and 5.873 and 5.169 and 5.3375 and 6.082 and 6.251 | Lung (mice [1]; [6]): 0.6629 and 0.6646 and 0.5455 and 0.5464 and 0.7241 and 0.5883 | Spleen (mice [1]; [6]): 0.4787 and 0.4556 and 0.409 and 0.4522 and 0.473 and 0.3725 | hippocampal interleukin-6 level (in words) (mice [2]; 3/10 mg kg−1 for 14 days): did not elevate | hippocampal tumor necrosis factor-alpha level (in words) (mice [2]; 3/10 mg kg−1 for 14 days): did not elevate | IL-6 (mice [2]; 3 mg/kg): 45.0571 and 32.8331 and 24.8073 and 32.2935 and 22.1265 and 25.6335 and 36.1041 and 30.8941 and 28.8202 and 44.6187 and 40.1844 and 35.7837 and 22.7841 and 20.9462 and 42.3088 | TNF-α (mice [2]; 3 mg/kg): 465.065 and 545.129 and 550.438 and 437.245 and 389.037 and 473.135 and 223.18 and 189.621 and 460.606 and 247.598 and 569.127 and 488.638 and 325.113 and 294.957 | IL-6 (mice [2]; 10 mg/kg): 35.0924 and 32.8836 and 20.727 and 32.5464 and 25.9876 and 35.1767 and 33.4906 and 33.3389 and 29.4778 and 46.0519 and 38.6332 and 35.1936 and 20.9968 and 23.4416 and 42.3425 | TNF-α (mice [2]; 10 mg/kg): 489.276 and 552.137 and 604.805 and 420.68 and 480.356 and 484.816 and 216.59 and 243.988 and 478.02 and 253.544 and 531.962 and 451.261 and 319.804 and 494.16 | rotarod falling latency vs vehicle (in words) (mice [3]): showed no significant effects | body weight during 21-day chronic administration (in words) (mice [4]; 10 mg kg−1 per day, vs vehicle): no evident effect on body weight | Kidney/Body Weight Ratio (%) (mice [4]; [7]): 1.122% and 1.187% and 1.1008% and 0.9864% and 1.07% (2×) and 1.145% and 1.0748% and 1.06% and 1.171% | Liver/Body Weight Ratio (%) (mice [4]; [7]): 5.072% and 4.477% and 4.872% and 4.814% and 4.623% and 5.084% and 4.1308% and 4.637% and 4.391% and 4.945% | Body weight (mice [4]; 10 mg/kg, day 7, individual animals): 24.2 (3×) and 24 and 25.6 and 25.4 and 23.8 | Body weight (mice [4]; 10 mg/kg, day 8, individual animals): 24 and 25.9 and 24.2 (2×) and 24.4 and 25 and 26 | Body weight (mice [4]; 10 mg/kg, day 9, individual animals): 25 and 24 and 26.3 and 25.6 (2×) and 24.7 and 24.1 | Body weight (mice [4]; 10 mg/kg, day 10, individual animals): 26.3 and 25.4 (2×) and 24.1 and 25 and 25.5 | liver-to-body and kidney-to-body weight ratio (in words) (mice [4]; 21-day administration): no appreciable differences | serum aspartate aminotransferase and urea levels (in words) (mice [4]; 21-day administration): comparable | serum creatinine level (in words) (mice [4]; 21-day administration): marked decreases in creatinine levels | ALT (mice [4]; [8]): 36 and 35 and 41 and 32 and 37 and 33 and 31 and 29 | AST (mice [4]; [8]): 167 and 207 and 243 and 139 and 147 and 172 and 200 and 131 and 133 and 155 | Cr (mice [4]; [8]): 19 and 18 and 20 and 21 and 22 and 23 | Urea (mice [4]; [8]): 5.59 and 3.68 and 6 and 5.19 and 5.88 and 6.46 and 5.16 and 5.73 and 5.29 and 5.71 | SIT--Time in interaction zone (s), single mice (C57BL/6J mice after CSDS; 10 mg/kg, session not given): 83.5 s and 59.3 s and 49.8 s and 72.2 s and 60.4 s and 74.9 s and 82.2 s and 43.8 s | CSDS: time spent in corners in SIT (in words) (C57BL/6J mice after CSDS; single i.p. injection 10 mg kg−1): significant decrease in the time spent in corners
